This test has as its target T1, human α7 nAChR stably expressed in a HEK cell line (with human RIC-3) (Homo sapiens, UniProt P36544).
T1 construct: PrecisION hnAChR α7/RIC-3
In words: Automated patch-clamp electrophysiology functional assay (Assay A), IonFlux HT, whole-cell population patch. Format: cell-based. How it is done:
The α7 nAChR positive allosteric modulator (PAM) activity of the present compounds may be tested using assays known in the art. The α7 nAChR PAMs described herein have activities in an automated patch-clamp electrophysiology functional assay as described in the examples. The assay was performed using the IonFlux HT in a whole-cell, population patch configuration. See Golden et al. Assay Drug Dev. Technol. (2011) 9:608-619. The compounds were assessed for their ability to modulate the function of the human α7 nAChR stably expressed in a HEK cell line both in the presence, and in the absence of the natural α7 agonist acetylcholine. By performing a series of such measurements at different concentrations, the effective concentration of the α7 nAChR PAMs (EC50) was determined. See Spencer et al. Assay Drug Dev. Technol. (2012) 10:313-324.
Direct activation of α7 (agonism), and potentiation of 5 acetylcholine-evoked α7 currents was determined as follows:
Automated Patch-Clamp Electrophysiology Functional Assay (Assay A)
Automated patch-clamp electrophysiology was performed using the IonFlux HT (Fluxion Biosciences Inc., San Francisco, Calif.) in the whole-cell, population patch configuration. Test compounds were assessed for their ability to modulate the function of the α7 nicotinic acetylcholine receptor both in the presence, and in the absence of the natural α7 agonist acetylcholine. A HEK cell line stably expressing both human RIC-3 and human α7 (PrecisION hnAChR α7/RIC-3, Eurofins Pharma, St. Charles, Mo.) was cultured in 175 cm^2 triple-layer tissue culture flasks to no more than 90% confluency in DMEM/F-12 growth media supplemented with 10% heat-inactivated fetal bovine serum, 1% non-essential amino acids, 0.625 μg/mL Puromycin, and 400 μg/mL Geneticin. Immediately prior to assay, cells were detached by first aspirating growth media, rinsing with Dulbecco's phosphate buffered saline, and then adding 10 mL of Accutase (Innovative Cell Technologies, San Diego, Calif.) to the flask and then incubating at 37° C. for 5 minutes. Detached cells were then recovered by the addition of 40 mL of CHO-serum-free media supplemented with 25 mM HEPES, and rocked gently in a 50 mL conical tube for 20 minutes prior to patch-clamp assay. After recovery, cells were pelleted by centrifugation at 1,000 RPM for 1 minute in a compact bench top centrifuge; recovery media was aspirated and cells were resuspended in external recording solution (150 mM NaCl, 5 mM KCl, 2 mM CaCl2, 1 mM MgCl2, 10 mM HEPES, 12 mM dextrose) to a density of 5.0×10^6 cells/mL. The cell suspension was added to the cell inlet wells on an IonFlux HT population patch plate which had previously been rinsed and primed with deionized H2O. Test compounds were serially diluted in DMSO and then resuspended to the final test concentration in external recording solution, with, or without […] acetylcholine added to the external recording solution; test compounds were then transferred to the IonFlux HT population patch plate. Internal recording solution (110 mM TrisPO4, 28 mM TrisBase, 0.1 mM CaCl2, 2 mM MgCl2, 11 mM EGTA, 4 mM MgATP) was added to the internal recording solution inlet wells on the IonFlux HT patch plate previously loaded with cells and test compounds, and the plate loaded into the IonFlux HT instrument. A protocol was executed on the IonFlux HT to trap the cells, break into the cells, and establish the whole-cell recording configuration; cells were voltage-clamped at a holding potential of −60 mV for the duration of the experiment, all experiments were conducted at room temperature, and the IonFlux HT injection pressure was 8 psi for solution applications. Upon establishing the whole-cell configuration, external recording solution was perfused into the recording chambers for 120 seconds and then 40 μM acetylcholine was applied for 1 second and immediately washed off with external recording solution for 60 seconds. […]
A general note: The patch-clamp technique gives a direct electrical read-out from membranes.

Setting [1] is: automated patch-clamp electrophysiology functional assay (Assay A), potency class by EC50, read-out: α7 nAChR Potency.
Where [2] appears, read: electrophysiology EC50, HEK cells expressing human α7/RIC-3, 40 μM acetylcholine, holding potential −60 mV, room temperature, read-out: α7 nAChR EC50.

Like-named read-outs stand apart in the source and are kept apart here.

T1 sequence (P36544 23-502): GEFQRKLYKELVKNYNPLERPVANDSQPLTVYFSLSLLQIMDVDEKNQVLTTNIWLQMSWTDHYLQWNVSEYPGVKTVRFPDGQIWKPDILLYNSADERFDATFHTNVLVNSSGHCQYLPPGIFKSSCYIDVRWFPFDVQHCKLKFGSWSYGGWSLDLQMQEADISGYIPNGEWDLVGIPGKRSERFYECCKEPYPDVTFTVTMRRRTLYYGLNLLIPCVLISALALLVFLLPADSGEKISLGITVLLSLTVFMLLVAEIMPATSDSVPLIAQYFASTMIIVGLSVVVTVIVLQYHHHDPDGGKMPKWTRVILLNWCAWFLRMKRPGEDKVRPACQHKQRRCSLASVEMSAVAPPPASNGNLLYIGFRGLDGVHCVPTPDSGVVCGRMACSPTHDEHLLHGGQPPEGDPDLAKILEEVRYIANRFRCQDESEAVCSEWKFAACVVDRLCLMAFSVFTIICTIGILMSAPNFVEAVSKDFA

Turning to `CC1(C)[C@@H](c2ccc(S(N)(=O)=O)cc2)[C@@H]1c1noc(C2(c3cnccn3)CC2)n1` [Example I12], under setting [1], the EC50 lay within 0.5 to 5 µM. As for `CC1(C)[C@@H](c2ccc(S(N)(=O)=O)cc2)[C@@H]1c1noc(-c2ccc(F)c(OC(F)(F)F)c2)n1` [Example H4], the EC50 under setting [1] was in the range of 0.5 to 5 µM. For the molecule `CC1(C)[C@@H](c2ccc(S(N)(=O)=O)cc2)[C@@H]1c1nc(-c2ccc(F)cc2F)no1` [Example C12], the EC50 under setting [1] was in the range of 0.5 to 5 µM. In the case of `CC1(C)[C@H](c2ccc(S(N)(=O)=O)cc2)[C@H]1c1nc(-c2cccc(F)c2)no1` [Example A10], the EC50 by setting is: under setting [1], 0.5 to 5 µM; under setting [2], 1.1 µM. In the case of `CC1(C)[C@@H](c2ccc(S(N)(=O)=O)cc2)[C@@H]1c1noc(-c2cnc(SCC(F)(F)F)o2)n1` [Example I18], the EC50 was 0.5 to 5 µM under setting [1] and 1.3 µM under setting [2]. The matching figures for `CC(C)(C)c1coc([C@@H]2[C@@H](c3ccc(S(N)(=O)=O)cc3)C2(C)C)n1` [Example J4]: 0.5 to 5 µM and 3.2 µM. `CC1(C)[C@@H](c2ccc(S(N)(=O)=O)cc2)[C@@H]1c1noc(C2CCCCC23CC3)n1` (stereo partly shown) [Example I27]: the EC50 under setting [1] was in the range of 0.1 to 0.5 µM.

Turning to `NS(=O)(=O)c1ccc([C@@H]2C[C@H]2c2nc(-c3ccccc3)no2)cc1` [Example C5], the EC50 runs as follows: under setting [1], 0.1 to 0.5 µM; under setting [2], 0.12 µM. In the case of `COc1ccc(Cl)cc1-c1noc(C2C(c3ccc(S(N)(=O)=O)cc3)C2(F)F)n1` (stereo not shown) [Example E2], under setting [1], the EC50 was 0.5 to 5 µM. For the molecule `CC1(C)[C@@H](c2ccc(S(N)(=O)=O)cc2)[C@@H]1c1noc(CCC2CC2)n1` [Example 2, 4-((1S,3S)-3-(5-(2-Cyclopropylethyl)-1,2,4-oxadiazol-3-yl)-2,2-dimethylcyclopropyl)benzenesulfonamide], the EC50 under setting [1] was 0.1 to 0.5 µM. In the case of `CC1(C)[C@H](c2ccc(S(N)(=O)=O)cc2)[C@H]1c1nc(C2CCOC2)no1` (stereo partly shown) [Example B11], the EC50 runs as follows: under setting [1], 5 to 50 µM; under setting [2], 5.8 µM. For the molecule `CC1(C)[C@H](c2ccc(S(N)(=O)=O)cc2)[C@H]1c1nc(C2CC2)c(C2CC2)o1` [Example 31, 4-[(1R,3R)-3-(4,5-Dicyclopropyl-1,3-oxazol-2-yl)-2,2-dimethylcyclopropyl]benzenesulfonamide], the EC50 under setting [1] was 0.5 to 5 µM and the EC50 under setting [2] came to 2.4 µM. As for `NS(=O)(=O)c1ccc([C@@H]2C[C@H]2c2nc(-c3cccc(F)c3)cs2)cc1` [Example 14, 4-{(1R,2R)-2-[4-(3-Fluorophenyl)-1,3-thiazol-2-yl]cyclopropyl}benzenesulfonamide], the EC50 under setting [1] fell in the range of 0.1 to 0.5 µM and the EC50 under setting [2] is 0.2 µM.

In the case of `CC1(C)[C@H](c2ccc(S(N)(=O)=O)cc2)[C@H]1c1nnc(-c2ccc(F)cc2F)s1` [Example 5, 4-{(1R,3R)-3-[5-(2,4-Difluorophenyl)-1,3,4-thiadiazol-2-yl]-2,2-dimethylcyclopropyl}benzenesulfonamide], the EC50 is 0.1 to 0.5 µM under setting [1] and 0.18 µM under setting [2]. With `CC1(C)[C@H](c2ccc(S(N)(=O)=O)cc2)[C@H]1c1nc(C2CCCCC2)no1` [Example 20, 4-((1R,3R)-3-(3-Cyclohexyl-1,2,4-oxadiazol-5-yl)-2,2-dimethylcyclopropyl)benzenesulfonamide], the EC50 under setting [1] lay in the range of 0.5 to 5 µM and the EC50 under setting [2] came out at 0.66 µM.

For the molecule `NS(=O)(=O)c1ccc([C@@H]2C[C@H]2c2nc(-c3cc(F)ccc3F)no2)cc1` [Example C16], the EC50 is 0.1 to 0.5 µM under setting [1] and 0.16 µM under setting [2]. As to `CC(C)c1noc([C@@H]2[C@@H](c3ccc(S(N)(=O)=O)cc3)C2(C)C)n1` [Example B1], the EC50 under setting [1] was in the range of 0.5 to 5 µM and the EC50 under setting [2] came to 1.5 µM.

Turning to `CC1(C)[C@H](c2ccc(S(N)(=O)=O)cc2)[C@H]1c1noc(C2(C(F)(F)F)CC2)n1` [Example L19], under setting [1], the EC50 was in the range of 0.5 to 5 µM.

Consider `CC1(C)[C@H](c2ccc(S(N)(=O)=O)cc2)[C@H]1c1cnn(-c2cccc(F)c2)c1` [Example 13, 4-{(1R,3R)-3-[1-(3-Fluorophenyl)-1H-pyrazol-4-yl]-2,2-dimethylcyclopropyl}benzenesulfonamide], for which the EC50 is, setting by setting: under setting [1], 0.1 to 0.5 µM; under setting [2], 0.34 µM.

For the origin of these results see patent publication US9840481B2, “Allosteric modulators of nicotinic acetylcholine receptors” (MERCK SHARP & DOHME CORP., priority 2016, dated 2017).
